# Experimental data: PubChem BioAssay (NCI)
# Several values for one entry are separate records, joined by “and”; a condition that tells them apart may be missing. Identical values can stand only once.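 Compound exposure: 48 hours, 5 concentrations, 96-well plates. Abbreviation: GI50, concentration required for 50% inhibition of growth. TGI: concentration producing complete growth inhibition.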
# Experiments:
# Test in all cases: inhibition of tumour cell growth, NCI panel, 48 h
# CCRF-CEM leukemia = tested on: CCRF-CEM leukemia
# KM12 colon = tested on: KM12 colon
# A498 renal = tested on: A498 renal
# CAKI-1 renal = tested on: CAKI-1 renal
# ACHN renal = tested on: ACHN renal
# SW-620 colon = tested on: SW-620 colon
# OVCAR-5 ovarian = tested on: OVCAR-5 ovarian
# UO-31 renal = tested on: UO-31 renal
# 786-0 renal = tested on: 786-0 renal
# SK-OV-3 ovarian = tested on: SK-OV-3 ovarian
# MDA-N = tested on: MDA-N
# UACC-62 melanoma = tested on: UACC-62 melanoma
# OVCAR-3 ovarian = tested on: OVCAR-3 ovarian
# NCI/ADR-RES ovarian = tested on: NCI/ADR-RES ovarian
# MALME-3M melanoma = tested on: MALME-3M melanoma
# K-562 leukemia = tested on: K-562 leukemia
# TK-10 renal = tested on: TK-10 renal
# IGROV1 ovarian = tested on: IGROV1 ovarian
# U251 CNS = tested on: U251 CNS
# PC-3 prostate = tested on: PC-3 prostate
# NCI-H23 lung = tested on: NCI-H23 lung
# HCT-15 colon = tested on: HCT-15 colon
# HS 578T breast = tested on: HS 578T breast
# SN12C renal = tested on: SN12C renal
# OVCAR-4 ovarian = tested on: OVCAR-4 ovarian
# HL-60(TB) leukemia = tested on: HL-60(TB) leukemia
# RPMI-8226 leukemia = tested on: RPMI-8226 leukemia
# UACC-257 melanoma = tested on: UACC-257 melanoma
# HCC-2998 colon = tested on: HCC-2998 colon
# MDA-MB-435 = tested on: MDA-MB-435
# RXF 393 renal = tested on: RXF 393 renal
# SF-539 CNS = tested on: SF-539 CNS
# MOLT-4 leukemia = tested on: MOLT-4 leukemia
# COLO 205 colon = tested on: COLO 205 colon
# SNB-75 CNS = tested on: SNB-75 CNS
# HT29 colon = tested on: HT29 colon
# HCT-116 colon = tested on: HCT-116 colon
# SK-MEL-28 melanoma = tested on: SK-MEL-28 melanoma
# M14 melanoma = tested on: M14 melanoma
# LOX IMVI melanoma = tested on: LOX IMVI melanoma
# MCF7 breast = tested on: MCF7 breast
# A549 NSCLC = tested on: A549 NSCLC
# BT-549 breast = tested on: BT-549 breast
# SK-MEL-2 melanoma = tested on: SK-MEL-2 melanoma
# SK-MEL-5 melanoma = tested on: SK-MEL-5 melanoma
# MDA-MB-231 breast = tested on: MDA-MB-231 breast
# SF-295 CNS = tested on: SF-295 CNS
# DU-145 prostate = tested on: DU-145 prostate
# HOP-62 NSCLC = tested on: HOP-62 NSCLC
# SNB-19 CNS = tested on: SNB-19 CNS
# SR leukemia = tested on: SR leukemia
# NCI-H460 lung = tested on: NCI-H460 lung
# T-47D breast = tested on: T-47D breast
# SF-268 CNS = tested on: SF-268 CNS
compound,measurement,setting,value
CC(=O)OCC1OC(n2c(-c3ccccc3)c(N=Nc3ccc(Cl)cc3)c(C)c(C#N)c2=S)C(OC(C)=O)C(OC(C)=O)C1OC(C)=O (centres undefined),GI50,CCRF-CEM leukemia,4.1 µM and 13.7 µM
same,TGI,CCRF-CEM leukemia,54.3 µM and > 100 µM
same,GI50,KM12 colon,9.22 µM and 85.4 µM
same,TGI,KM12 colon,24.4 µM and > 100 µM
same,GI50,A498 renal,2.78 µM and 19.1 µM
same,TGI,A498 renal,43.5 µM and 70.7 µM
same,TGI,CAKI-1 renal,63.9 µM and > 100 µM
same,GI50,ACHN renal,6.95 µM and 34.6 µM
same,TGI,ACHN renal,> 100 µM
same,TGI,SW-620 colon,34.6 µM and > 100 µM
same,GI50,OVCAR-5 ovarian,15.7 µM and > 100 µM
same,TGI,OVCAR-5 ovarian,30.6 µM and > 100 µM
same,GI50,UO-31 renal,5.87 µM and 47.3 µM
same,TGI,UO-31 renal,27.1 µM and > 100 µM
same,TGI,786-0 renal,> 100 µM and 88.6 µM
same,GI50,SK-OV-3 ovarian,8.42 µM and 27.3 µM
same,TGI,SK-OV-3 ovarian,> 100 µM and 76.5 µM
same,TGI,MDA-N,> 100 µM
same,GI50,UACC-62 melanoma,3.2 µM and 14.4 µM
same,TGI,UACC-62 melanoma,15 µM and > 100 µM
same,GI50,OVCAR-3 ovarian,4.77 µM and 39.8 µM
same,TGI,OVCAR-3 ovarian,52.5 µM and > 100 µM
same,GI50,NCI/ADR-RES ovarian,6.76 µM and 33.2 µM
same,TGI,NCI/ADR-RES ovarian,> 100 µM
same,GI50,MALME-3M melanoma,20.1 µM and > 100 µM
same,TGI,MALME-3M melanoma,> 100 µM
same,TGI,K-562 leukemia,28.6 µM and > 100 µM
same,TGI,TK-10 renal,> 100 µM
same,GI50,IGROV1 ovarian,7.17 µM and 29.9 µM
same,TGI,IGROV1 ovarian,> 100 µM
same,GI50,U251 CNS,3.79 µM and 24 µM
same,TGI,U251 CNS,15.6 µM and 74.4 µM
same,TGI,PC-3 prostate,37.4 µM and > 100 µM
same,GI50,NCI-H23 lung,2.75 µM and 22.3 µM
same,TGI,NCI-H23 lung,14.9 µM and > 100 µM
same,GI50,HCT-15 colon,7.59 µM and 59.8 µM
same,TGI,HCT-15 colon,29.1 µM and > 100 µM
same,TGI,HS 578T breast,94 µM and 96.9 µM
same,GI50,SN12C renal,12.2 µM and > 100 µM
same,TGI,SN12C renal,> 100 µM
same,GI50,OVCAR-4 ovarian,13.8 µM and 31.8 µM
same,TGI,OVCAR-4 ovarian,> 100 µM
same,GI50,HL-60(TB) leukemia,23 µM and 8.03 µM
same,TGI,HL-60(TB) leukemia,> 100 µM
same,GI50,RPMI-8226 leukemia,6.64 µM and 37.9 µM
same,TGI,RPMI-8226 leukemia,> 100 µM
same,GI50,UACC-257 melanoma,16.5 µM and > 100 µM
same,TGI,UACC-257 melanoma,> 100 µM
same,GI50,HCC-2998 colon,18 µM and > 100 µM
same,TGI,HCC-2998 colon,63 µM and > 100 µM
same,TGI,MDA-MB-435,41.1 µM and > 100 µM
same,TGI,RXF 393 renal,35.6 µM and 48.8 µM
same,TGI,SF-539 CNS,43.7 µM and > 100 µM
same,TGI,MOLT-4 leukemia,21.5 µM and > 100 µM
same,GI50,COLO 205 colon,28 µM and > 100 µM
same,TGI,COLO 205 colon,57.5 µM and > 100 µM
same,GI50,SNB-75 CNS,25.5 µM and 4.24 µM
same,TGI,SNB-75 CNS,> 100 µM and 26.4 µM
same,GI50,HT29 colon,20.1 µM and 87.7 µM
same,TGI,HT29 colon,49.1 µM and > 100 µM
same,GI50,HCT-116 colon,6.61 µM and 30.2 µM
same,TGI,HCT-116 colon,> 100 µM
same,GI50,SK-MEL-28 melanoma,4.58 µM and 30.3 µM
same,TGI,SK-MEL-28 melanoma,16.9 µM and > 100 µM
same,GI50,M14 melanoma,9.33 µM and 71.1 µM
same,TGI,M14 melanoma,32.4 µM and > 100 µM
same,GI50,LOX IMVI melanoma,11.2 µM and > 100 µM
same,TGI,LOX IMVI melanoma,43.3 µM and > 100 µM
same,GI50,MCF7 breast,10.2 µM and 28.2 µM
same,TGI,MCF7 breast,24.4 µM and > 100 µM
same,GI50,A549 NSCLC,6.86 µM and 22.1 µM
same,TGI,A549 NSCLC,> 100 µM
same,GI50,BT-549 breast,5.4 µM and 17.9 µM
same,TGI,BT-549 breast,20.1 µM and 58.8 µM
same,TGI,SK-MEL-2 melanoma,39.6 µM and > 100 µM
same,GI50,SK-MEL-5 melanoma,4.01 µM and 10.4 µM
same,TGI,SK-MEL-5 melanoma,14.4 µM and 54.8 µM
same,GI50,MDA-MB-231 breast,20.3 µM and 45.2 µM
same,TGI,MDA-MB-231 breast,> 100 µM
same,GI50,SF-295 CNS,25.2 µM and 56.7 µM
same,TGI,SF-295 CNS,> 100 µM
same,GI50,DU-145 prostate,25.3 µM and > 100 µM
same,TGI,DU-145 prostate,> 100 µM
same,TGI,HOP-62 NSCLC,52.9 µM and > 100 µM
same,GI50,SNB-19 CNS,4.48 µM and 34.1 µM
same,TGI,SNB-19 CNS,33.3 µM and > 100 µM
same,GI50,SR leukemia,11.5 µM and 34.9 µM
same,TGI,SR leukemia,> 100 µM
same,GI50,NCI-H460 lung,5.26 µM and 51.2 µM
same,TGI,NCI-H460 lung,> 100 µM
same,GI50,T-47D breast,6.86 µM and 27.2 µM
same,TGI,T-47D breast,47.3 µM and > 100 µM
same,GI50,SF-268 CNS,14.7 µM and 39.3 µM
same,TGI,SF-268 CNS,> 100 µM
